Measured values published in patent EP0696280B1, “SUBSTITUTED PYRROLIDIN-3-YL-ALKYL-PIPERIDINES USEFUL AS TACHYKININ ANTAGONISTS” (MERRELL PHARMACEUTICALS INC., priority 1993, dated 1994).
Structures can show the parent of a compound that is named as a salt. Where two headings read alike, the source gives them in different places.

Tests used:
[1] = molecular target: T1, NK2 receptor (Bos taurus, UniProt P05363); test: Antagonism of NK2 receptor mediated (NKA-induced) phosphatidylinositol turnover in SKLKB82#3 cells; assay type: cell-based
T1 construct: expressed in transfected cells; host or cells: SKLKB82#3 cells
T1 sequence (P05363 1-384): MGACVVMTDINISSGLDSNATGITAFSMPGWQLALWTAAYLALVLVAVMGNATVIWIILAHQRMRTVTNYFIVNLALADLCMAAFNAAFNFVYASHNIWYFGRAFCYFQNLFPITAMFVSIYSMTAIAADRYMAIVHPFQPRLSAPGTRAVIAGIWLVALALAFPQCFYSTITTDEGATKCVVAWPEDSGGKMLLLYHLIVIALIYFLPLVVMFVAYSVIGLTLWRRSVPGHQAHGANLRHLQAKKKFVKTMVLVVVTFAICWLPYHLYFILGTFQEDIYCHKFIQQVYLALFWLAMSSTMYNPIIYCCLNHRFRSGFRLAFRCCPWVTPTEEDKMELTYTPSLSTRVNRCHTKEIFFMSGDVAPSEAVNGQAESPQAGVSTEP
Method: Tachykinin-mediated inositol phosphate accumulation was measured in UCll or SKLKB82#3 cells in the presence and absence of NK1 or NK2 receptor antagonists, respectively. Tissues were incubated in Krebs-Henseleit buffer at 37°C with 95% O2-5% CO2 gassing. Tissues were then incubated with fresh buffer containing 100 µCi of myo-[2-^3H(N)] inositol at 37°C for 60 min with gentle gassing. After washing twice at room temperature in 5 ml buffer containing 10 mM LiCl, tissues were incubated for 30 min at room temperature with a buffer change at 15 min. Buffer was removed and Krebs-Henseleit buffer (containing 40 µg/ml bacitracin, 4 µg/ml each of leupeptin and chymostatin, 0.1% bovine serum albumin and 10 mM each of thiorphan and LiCl) added. After 15 min, SP was added to UCll cells or NKA to SKLKB82#3 cells at various concentrations to start the reaction. After incubation for 60 min at room temperature the reaction was terminated by addition of 930 µl chloroform: methanol (1:2 by volume) to each tube, followed by 310 µl chloroform and 310 µl doubly distilled water. Samples were vortexed, centrifuged, and 0.9 ml of the aqueous (top) phase removed and added to 2 ml ddH2O. The mixture was vortexed and loaded onto a 50% Bio-Rad AG 1-X8 (formate form, 100-200 mesh) exchange column (Bio-Rad Laboratories, Hercules, CA). The columns were washed, in order, with: 1) 10 ml doubly distilled water, 2) 5 ml of 5 mM disodium tetraborate/60 mM sodium formate, and 3) 5 ml of 1 M ammonium formate/0.1 M formic acid. The third elution was collected and 1 ml counted in 7 ml scintillation fluid. A 50 µl aliquot of the organic (bottom) phase was removed, dried in a scintillation vial and counted in 7 ml scintillation fluid.
The ratio of DPM in the aqueous phase aliquot (total inositol phosphates) to the DPM in the 50 µl organic phase aliquot (total [^3H]inositol incorporated) was calculated for each sample. Data are expressed as a percent of agonist-induced accumulation of [^3H]-inositol phosphates over basal levels. The ratios in the presence of test compound and/or standards were compared to the ratios for control samples (i.e. no stimulating agonist). Dose-response graphs were constructed and the abilities of the test compounds to inhibit tachykinin-induced phosphatidylinositol turnover determined with the aid of a computer program. […] Data is expressed as percent stimulation of total inositol phosphate accumulation over basal levels and normalized to the maximum response produced by SP. […] Schild analysis is performed using dose response curves (such as those presented in Figures 1a and 1b) to obtain a value indicative of the strength of a competitive antagonist and is expressed as the pA2, which is the negative logarithm of the molar concentration of antagonist which reduces the effect of a dose of agonist to one-half of that expected at the dose of agonist. […]
Values are mean (95% confidence limits) derived from Schild analysis of 2-3 experiments per compound per receptor.

[2] = tested on: NKA-induced respiratory effects; test: Antagonism of NKA aerosol induced respiratory effects in conscious guinea pigs (whole body plethysmography); assay type: in vivo, guinea pig; details: 20 min prior to NKA aerosol (0.05%); for DYSPNEA ONSET: mean and SEM
Method: In vivo experiments were performed using male Duncan Hartley guinea pigs (250-350g). Changes in conscious breathing patterns were monitored in four animals simultaneously using modified whole body plethysmography consisting of four small plexiglass boxes each connected to a reference box via Validyne DP 45-16 differential pressure transducers. The 4 boxes were equipped with an air supply line (also used for aerosol delivery) and an exhaust air line. Supply and exhaust lines were of the same length and narrow bore and arose from a common supply chamber and vented to a common exhaust chamber. This system was used to ensure that fluctuations in supply air and atmospheric pressure would remain in phase and be eliminated from the net signal by the differential pressure transducers. The analog pressure signals were digitalized via a Data Translation DT2821 A to D board. Data were collected at a rate of 100 samples/second/animal. Each cycle of pressure change was analyzed using the following parameters: rising and falling slope determined between minimum and maximum pressures, the ratio of rising over falling slope, and the magnitude of the change between initial trough pressure and peak cycle pressure. Using these values (and observing the animals) the pressure cycles were characterized into normal breaths, forced exhalations (apparent by abdominal heaving), significant respiratory events (SREs; usually coughs, less often sneezes or gasps which were characterized by transient, extremely large pressure increases which were distinguishable from noise) and movement/noise with a PCAT 286 running a System V UNIX operating system. Dyspnea was defined as a significant, sustained increase in plethysmograph pressure which was associated with an observable shift to labored breathing in the animal.
During the course of a typical experiment in which airway responsiveness to various bronchoconstricting agents was examined, aerosols were delivered for 19 min (0.33 ml/min) using a DeVilbiss Ultraneb 99 ultrasonic nebulizer and animals monitored during this time. Prior to nebulization, 1 min of resting breathing was collected to establish a baseline pressure. […] The vehicle for nebulization of all bronchoconstrictive agents was phosphate buffered saline (pH 7.4) which elicited no respiratory effects itself. Putative tachykinin antagonists were administered either (i.v.) 20 min prior to onset of aerosol exposure or orally 1 hour prior to onset (to guinea pigs after an overnight fast).
Table 6 illustrates the effects of the compounds of Example 3; Example 20A; and Example 5A on respiratory effects induced by NKA aerosol. […] These effects were dose dependent i.e. the higher the dose of compound, the greater attenuation of NKA-mediated effects. […]
Compounds were administered 20 min prior to initiation of NKA aerosol (0.05%). Values for each treatment represent the mean and SEM of data from 5-37 animals per dose.

[3] = Schild analysis, NKA in SKLKB82#3 cells, mean (95% confidence limits), 2-3 experiments

SMILES | Kb [1] | NK-2 RECEPTOR -SLOPE [1, 3] | DYSPNEA INCIDENCE ([2]; 5 mg/kg) | DYSPNEA ONSET ([2]; 5 mg/kg) | DYSPNEA INCIDENCE ([2]; 10 mg/kg) | DYSPNEA ONSET ([2]; 10 mg/kg) | Kb ([1]; Schild analysis, NKA in SKLKB82#3 cells, mean (95% confidence limits), 2-3 experiments, read-out: NK-2 RECEPTOR pA2 (converted)) | antagonism of the receptor mediated NKA induced PI turnover ([1]; SKLKB82#3 cells, Figure 1b, result in words)
COc1cc(C(=O)N2CCC(CCN3CCC(C(N)=O)(c4ccccc4)CC3)(c3ccc(Cl)c(Cl)c3)C2)cc(OC)c1OC (racemic) [Example 3A, 1-[2-[3-(3,4-dichloro-phenyl-3-yl)-1-(3,4,5-trimethoxy-benzoyl)-pyrrolidin-3-yl]-ethyl] -4-phenyl-piperidine-4-carboxylic acid amide hydrochloride] | 0.00178 µM | 0.73 (0.49-0.97) |  |  |  |  |  | 
COc1cccc(OC)c1C(=O)N1CCC(CCN2CCC(C(N)=O)(c3ccccc3)CC2)(c2ccc(Cl)c(Cl)c2)C1 (racemic) [Example 5A, 1-[2-[3-(3,4-dichloro-phenyl-3-yl)-1-(2,6-dimethoxy-benzoyl)-pyrrolidin-3-yl]-ethyl]-4-phenyl-piperidine-4-carboxylic acid amide hydrochloride] |  | 1.11 (0.99-1.23) | 60% (3/5) | 654 ± 37 s | 54% (7/13) | 608 ± 65 s | 0.0447 µM | 
COc1cc(C(=O)N2CCC(CCN3CCC(C(N)=O)(c4ccccc4)CC3)(c3ccc(Cl)c(Cl)c3)C2)cc(OC)c1OC (stereo not shown) [Example 3, 1-[2-[3-(3,4-dichloro-phenyl)-1-(3,4,5-trimethoxy-benzoyl)-pyrrolidin-3-yl]-ethyl]-4-phenyl-piperidine-4-carboxylic acid amide] |  |  | 86% (6/7) | 394 ± 32 s | 60% (6/10) | 801 ± 104 s |  | dose related antagonism
